In PubChem BioAssay (NCI):
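Assay format: 96-well plates, 48-hour exposure. GI50 is the concentration that inhibits growth by half. TGI denotes the concentration required for complete inhibition of growth.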

Assays:
Test in all cases: NCI-60 cell line screen, 48 h
[1] = system: DU-145 prostate
[2] = system: UO-31 renal
[3] = system: SR leukemia
[4] = system: PC-3 prostate
[5] = system: MOLT-4 leukemia
[6] = system: CCRF-CEM leukemia
[7] = system: SK-OV-3 ovarian
[8] = system: K-562 leukemia
[9] = system: HOP-92 NSCLC
[10] = system: UACC-257 melanoma
[11] = system: SK-MEL-2 melanoma
[12] = system: HL-60(TB) leukemia
[13] = system: A498 renal
[14] = system: SNB-75 CNS
[15] = system: RPMI-8226 leukemia
[16] = system: MDA-MB-231 breast
[17] = system: OVCAR-5 ovarian
[18] = system: UACC-62 melanoma
[19] = system: A549 NSCLC
[20] = system: COLO 205 colon
[21] = system: NCI-H226 lung
[22] = system: SW-620 colon
[23] = system: MDA-MB-435
[24] = system: OVCAR-3 ovarian
[25] = system: TK-10 renal
[26] = system: NCI-H522 lung
[27] = system: SK-MEL-28 melanoma
[28] = system: NCI/ADR-RES ovarian
[29] = system: ACHN renal
[30] = system: SNB-19 CNS
[31] = system: HOP-62 NSCLC
[32] = system: HT29 colon
[33] = system: SF-539 CNS
[34] = system: 786-0 renal
[35] = system: SF-268 CNS
[36] = system: HCT-15 colon
[37] = system: SF-295 CNS
[38] = system: M14 melanoma
[39] = system: HCC-2998 colon
[40] = system: IGROV1 ovarian
[41] = system: MALME-3M melanoma
[42] = system: SN12C renal
[43] = system: U251 CNS
[44] = system: OVCAR-8 ovarian
[45] = system: LOX IMVI melanoma
[46] = system: OVCAR-4 ovarian
[47] = system: BT-549 breast
[48] = system: HCT-116 colon
[49] = system: EKVX NSCLC
[50] = system: CAKI-1 renal
[51] = system: NCI-H460 lung
[52] = system: MCF7 breast
[53] = system: NCI-H23 lung
[54] = system: KM12 colon
[55] = system: SK-MEL-5 melanoma
[56] = system: HS 578T breast

**Q.** What does the source list for `Cc1ccc(NC(=O)c2[nH]c(SCCN(C)C)nc2-c2ccc(F)cc2)cc1C#Cc1cnc2cccnn12`?
**A.** GI50 [1]: 1.83 µM; TGI [1]: 3.34 µM; GI50 [2]: 1.38 µM; TGI [2]: 2.79 µM; GI50 [3]: 0.46 µM; TGI [3]: 2.22 µM; GI50 [4]: 2.12 µM; TGI [4]: 4.89 µM; GI50 [5]: 1.93 µM; TGI [5]: 4.83 µM; GI50 [6]: 2.08 µM; TGI [6]: 6.92 µM; GI50 [7]: 1.92 µM; TGI [7]: 3.44 µM; GI50 [8]: 0.127 µM; TGI [8]: 1.55 µM; GI50 [9]: 1.08 µM; TGI [9]: 2.73 µM; GI50 [10]: 1.88 µM; TGI [10]: 3.51 µM; GI50 [11]: 1.35 µM; TGI [11]: 3.16 µM; GI50 [12]: 1.38 µM; TGI [12]: 3.14 µM; GI50 [13]: 1.76 µM; TGI [13]: 3.32 µM; GI50 [14]: 1.59 µM; TGI [14]: 2.99 µM; GI50 [15]: 1.91 µM; TGI [15]: 6.05 µM

**Q.** `CC1CN=C(NS(=O)(=O)c2cc(C(=O)Nc3ccc(F)cc3)c(Cl)cc2S)NN1` (stereo not given) was tested. Which TGI [16] did it give?
**A.** The TGI was greater than 100 µM.

**Q.** What about the TGI [1] of the same molecule?
**A.** The TGI was greater than 100 µM.

**Q.** And the TGI [2]?
**A.** The TGI was greater than 100 µM.

**Q.** What about the TGI [3] of the same molecule?
**A.** Its TGI is greater than 100 µM.

**Q.** What about the TGI [4] of the same molecule?
**A.** Its TGI is greater than 100 µM.

**Q.** And the TGI [17]?
**A.** Its TGI is greater than 100 µM.

**Q.** What about the TGI [18] of the same molecule?
**A.** The TGI was greater than 100 µM.

**Q.** What about the TGI [19] of the same molecule?
**A.** The TGI was greater than 100 µM.

**Q.** And the TGI [20]?
**A.** Its TGI is greater than 100 µM.

**Q.** What about the TGI [5] of the same molecule?
**A.** The TGI was greater than 100 µM.

**Q.** What about the TGI [21] of the same molecule?
**A.** Its TGI is greater than 100 µM.

**Q.** And the TGI [22]?
**A.** Its TGI is greater than 100 µM.

**Q.** What about the TGI [23] of the same molecule?
**A.** Its TGI is greater than 100 µM.

**Q.** What about the TGI [24] of the same molecule?
**A.** The TGI was greater than 100 µM.

**Q.** What about the TGI [25] of the same molecule?
**A.** The TGI was greater than 100 µM.

**Q.** And the TGI [6]?
**A.** The TGI was greater than 100 µM.

**Q.** What about the TGI [7] of the same molecule?
**A.** The TGI was greater than 100 µM.

**Q.** And the TGI [26]?
**A.** Its TGI is 94.2 µM.

**Q.** And the TGI [27]?
**A.** Its TGI is greater than 100 µM.

**Q.** What about the TGI [28] of the same molecule?
**A.** The TGI was greater than 100 µM.

**Q.** And the TGI [29]?
**A.** Its TGI is greater than 100 µM.

**Q.** And the TGI [30]?
**A.** Its TGI is greater than 100 µM.

**Q.** What about the TGI [31] of the same molecule?
**A.** Its TGI is greater than 100 µM.

**Q.** What about the TGI [32] of the same molecule?
**A.** The TGI was greater than 100 µM.

**Q.** What about the TGI [33] of the same molecule?
**A.** Its TGI is greater than 100 µM.

**Q.** And the TGI [34]?
**A.** Its TGI is greater than 100 µM.

**Q.** And the TGI [35]?
**A.** The TGI was greater than 100 µM.

**Q.** What about the TGI [8] of the same molecule?
**A.** Its TGI is greater than 100 µM.

**Q.** And the TGI [36]?
**A.** The TGI was greater than 100 µM.

**Q.** And the TGI [37]?
**A.** Its TGI is greater than 100 µM.

**Q.** And the TGI [38]?
**A.** Its TGI is greater than 100 µM.

**Q.** What about the TGI [39] of the same molecule?
**A.** The TGI was greater than 100 µM.

**Q.** And the TGI [40]?
**A.** Its TGI is greater than 100 µM.

**Q.** What about the TGI [41] of the same molecule?
**A.** Its TGI is 70.1 µM.

**Q.** What about the TGI [42] of the same molecule?
**A.** The TGI was greater than 100 µM.

**Q.** And the TGI [43]?
**A.** Its TGI is greater than 100 µM.

**Q.** And the TGI [44]?
**A.** The TGI was greater than 100 µM.

**Q.** And the TGI [45]?
**A.** The TGI was greater than 100 µM.

**Q.** And the TGI [10]?
**A.** The TGI was greater than 100 µM.

**Q.** What about the TGI [11] of the same molecule?
**A.** The TGI was 76.7 µM.

**Q.** What about the TGI [46] of the same molecule?
**A.** The TGI was greater than 100 µM.

**Q.** What about the TGI [47] of the same molecule?
**A.** The TGI was greater than 100 µM.

**Q.** And the TGI [12]?
**A.** The TGI was greater than 100 µM.

**Q.** What about the TGI [48] of the same molecule?
**A.** Its TGI is greater than 100 µM.

**Q.** And the TGI [13]?
**A.** Its TGI is 64.1 µM.

**Q.** What about the TGI [49] of the same molecule?
**A.** Its TGI is greater than 100 µM.

**Q.** And the TGI [50]?
**A.** The TGI was greater than 100 µM.

**Q.** What about the TGI [51] of the same molecule?
**A.** Its TGI is greater than 100 µM.

**Q.** And the TGI [52]?
**A.** The TGI was greater than 100 µM.

**Q.** What about the TGI [53] of the same molecule?
**A.** Its TGI is greater than 100 µM.

**Q.** What about the TGI [15] of the same molecule?
**A.** The TGI was greater than 100 µM.

**Q.** What about the TGI [54] of the same molecule?
**A.** Its TGI is greater than 100 µM.

**Q.** What about the TGI [55] of the same molecule?
**A.** The TGI was greater than 100 µM.

**Q.** Which results are given for `COc1cc(/C=C2\CN(S(=O)(=O)c3ccccc3)C/C(=C\c3cc(CN4CCCCC4)c(O)c(OC)c3)C2=O)cc(CN2CCCCC2)c1O`?
**A.** GI50 [16]: 1.77 µM; TGI [16]: 3.47 µM; GI50 [1]: 1.73 µM; TGI [1]: 3.19 µM; GI50 [4]: 1.73 µM; TGI [4]: 3.4 µM; GI50 [18]: 1.65 µM; TGI [18]: 3.44 µM; GI50 [56]: 1.63 µM; TGI [56]: 4.31 µM; GI50 [24]: 1.72 µM; TGI [24]: 3.25 µM; GI50 [6]: 2.62 µM; TGI [6]: 7.25 µM; GI50 [7]: 1.93 µM; TGI [7]: 3.85 µM; GI50 [29]: 1.54 µM; TGI [29]: 2.93 µM; GI50 [30]: 2 µM; TGI [30]: 4.58 µM; GI50 [36]: 1.79 µM; TGI [36]: 3.78 µM; GI50 [37]: 2.25 µM; TGI [37]: 5.01 µM; GI50 [41]: 1.74 µM; TGI [41]: 3.39 µM; GI50 [42]: 1.83 µM; TGI [42]: 3.63 µM; GI50 [15]: 2.29 µM; TGI [15]: 5.11 µM; GI50 [54]: 1.73 µM; TGI [54]: 3.41 µM
